Assay results reported in patent publication US8546608B2, “Proteasome inhibitors and methods of using the same” (Cephalon, Inc., priority 2003, dated 2013).

How the values were obtained:
[1] = target: T1, proteasome in Molt-4 cells (human leukemia) (Homo sapiens, UniProt P20618+P28074); type: cell-based; conditions: assay of Example E, inhibition of MOLT4; read-out: MOLT4 (EC50)
T1 sequence (P28074 60-263): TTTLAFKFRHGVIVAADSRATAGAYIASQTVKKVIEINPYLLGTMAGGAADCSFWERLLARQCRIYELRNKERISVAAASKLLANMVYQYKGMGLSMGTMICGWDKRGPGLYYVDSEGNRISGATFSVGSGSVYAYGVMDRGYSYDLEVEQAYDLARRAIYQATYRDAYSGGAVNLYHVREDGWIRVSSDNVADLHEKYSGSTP
T1 sequence (P20618 29-241): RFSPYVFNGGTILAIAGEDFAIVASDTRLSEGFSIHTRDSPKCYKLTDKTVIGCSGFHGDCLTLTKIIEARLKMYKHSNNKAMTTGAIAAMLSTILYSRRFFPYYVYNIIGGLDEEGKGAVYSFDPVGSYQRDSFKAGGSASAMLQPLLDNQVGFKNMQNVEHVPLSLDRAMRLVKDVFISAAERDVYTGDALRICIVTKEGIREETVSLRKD
Method: Cellular Assay for Chymotrypsin-like activity of Proteasome in Molt-4 Cell Line
The chymotrypsin-like activity of proteasome in Molt-4 cells (human leukemia) was assayed according to the following procedure. A brief description of the method was published previously (Harding et al., J. Immunol., 1995, 155, 1767).
Molt-4 cells were washed and resuspended in HEPES-buffered Saline (5.4 mM KCl, 120 mM NaCl, 25 mM Glucose, 1.5 mM MgSO4, 1 mM Na pyruvate, 20 mM Hepes) and plated in 96-well microtiter white plates to a final concentration of 6×10^6 cells/mL. Then various 5× proteasome inhibitor concentrations (or diluted DMSO for controls), prepared from 250×DMSO solutions by diluting 50-fold using HEPES-buffered saline, were added to the plate to a final 1× concentration. After 15 minutes incubation at 37° C., a fluorimetric cell permeable substrate (MeOSuc-FLF-AFC) (methoxysuccinyl-Phe-Leu-Phe-7-amido-4-trifluoromethylcoumarin) purchased from Enzyme Systems Products, catalogue number AFC-88, was added to each well at a final concentration of 25 μM from a stock solution of 20 mM in DMSO. Reaction volumes were 100 μl per well.
The concentration of free AFC was monitored every 1.5 min for 30 min ([…]) on a Polastar Optima, BMG Labtechnologies microplate reader, using an excitation wavelength of 390 nm and emission wavelength of 520 nm. Proteasome activity was determined under conditions in which substrate hydrolysis increased linearly with time and the change in fluorescent signal was proportional to the concentration of free AFC.
Determination of EC50 Values for Proteasome Inhibitors in MOLT-4 Cell Line
Inhibition of chymotrypsin-like activity of proteasome in Molt-4 cells was determined by incubating cells with various concentrations of putative inhibitors for 15 minutes at 37° C. prior to the addition of substrate. Each experimental condition was evaluated in triplicate, and replicate experiments were performed for the inhibitors described herein.

[2] = target: T2, 20S Human Erythrocyte Proteasome (HEP) (Homo sapiens, UniProt P20618+P28074); assay: Chymotrypsin-like activity of 20S Human Erythrocyte Proteasome (HEP), IC50 determination; type: biochemical; conditions: assay of Example C, inhibition of HEP
T2 construct: 20S Human Erythrocyte Proteasome (HEP), purchased from Immatics Biotechnologies Inc; purchased Immatics Biotechnologies Inc., Tübingen, Germany; host or cells: human erythrocytes (natural source)
Method: Assay for Chymotrypsin-like Activity of 20S Human Erythrocyte Proteasome (HEP)
Proteasome chymotrypsin-like activity of compounds of the invention was assayed according to the following procedure.
In 96-well microtiter plates, 20S Human Erythrocyte Proteasome (HEP), purchased from Immatics Biotechnologies Inc., Tübingen, Germany was plated at 0.2 μg/mL (about 0.6 nM catalytic sites) in 0.04% SDS 20 mM Tris buffer. A fluorimetric substrate Suc-LLVY-AMC (succinyl-Leu-Leu-Val-Tyr-7-amido-4-methylcoumarin), purchased from Sigma Inc., St. Louis, Mo., USA was added to a final concentration of 100 μM from a stock solution of 10 mM in dimethylsulfoxide. Reaction volumes were 100 μl per well. […] Proteasome activity was determined under conditions in which substrate hydrolysis increased linearly with time and the change in fluorescence signal was proportional to the concentration of free AMC.
Determination of IC50 Values for HEP and α-Chymotrypsin Inhibitors
Inhibition of the chymotrypsin-like activity of HEP and of bovine α-chymotrypsin was determined by incubating the enzyme with various concentrations of putative inhibitors for 15 minutes at 37° C. (or room temperature for α-chymotrypsin) prior to the addition of substrate. Each experimental condition was evaluated in triplicate, and replicate experiments were performed for the inhibitors described herein.

SMILES | EC50 [1] [nM] | IC50 [2] [nM]
CC(C)C[C@H](NC(=O)[C@H](CCCNC(=N)N[N+](=O)[O-])NC(=O)c1ccc2ccccc2c1)B1O[C@@H]2C[C@@H]3C[C@@H](C3(C)C)[C@]2(C)O1 [D.1.1, Naphthalen-2-carboxamide,N-[(1S)-1-[[[(1R)-1-[(3aS,4S,6S,7aR)-hexahydro-3a,5,5-trimethyl-4,6-methano-1,3,2-benzodioxaborol-2-yl]-3-methylbutyl]amino]carbonyl]-4-[[imino(nitroamino)methyl]amino]butyl]] | < 200 | < 10
CC(C)C[C@H](NC(=O)[C@H](CCCNC(=N)N[N+](=O)[O-])NC(=O)c1cnccn1)B1O[C@@H]2C[C@@H]3C[C@@H](C3(C)C)[C@]2(C)O1 [D.1.2] | 200 to 2000 | < 100
CC(C)C[C@H](NC(=O)[C@H](CCCNC(=N)N[N+](=O)[O-])NC(=O)CCN1C(=O)c2ccccc2C1=O)B1O[C@@H]2C[C@@H]3C[C@@H](C3(C)C)[C@]2(C)O1 [D.1.3, 3-(1,3-Dioxo-1,3-dihydro-isoindol-2-yl)-propanamide,N-[(1S)-1-[[[(1R)-1-[(3aS,4S,6S,7aR)-hexahydro-3a,5,5-trimethyl-4,6-methano-1,3,2-benzodioxaborol-2-yl]-3-methylbutyl]amino]carbonyl]-4-[[imino(nitroamino)methyl]amino]butyl]] | 200 to 2000 | < 10
CCCCc1ccc(C(=O)N[C@@H](CCCNC(=N)N[N+](=O)[O-])C(=O)N[C@@H](CC(C)C)B2O[C@@H]3C[C@@H]4C[C@@H](C4(C)C)[C@]3(C)O2)cc1 [D.1.4, 4-Butylbenzamide,N-[(1S)-1-[[[(1R)-1-[(3aS,4S,6S,7aR)-hexahydro-3a,5,5-trimethyl-4,6-methano-1,3,2-benzodioxaborol-2-yl]-3-methylbutyl]amino]carbonyl]-4-[[imino(nitroamino)methyl]amino]butyl]] | < 200 | < 10
CC(C)C[C@H](NC(=O)[C@H](CCCNC(=N)N[N+](=O)[O-])NC(=O)c1cccc(NC(=O)OC(C)(C)C)c1)B1O[C@@H]2C[C@@H]3C[C@@H](C3(C)C)[C@]2(C)O1 [D.1.5, 3-[(1,1-dimethylethoxy)carbonylamino]benzamide, N-[(1S)-1-[[[(1R)-1-[(3aS,4S,6S,7aR)-hexahydro-3a,5,5-trimethyl-4,6-methano-1,3,2-benzodioxaborol-2-yl]-3-methylbutyl]amino]carbonyl]-4-[[imino(nitroamino)methyl]amino]butyl]-] | 200 to 2000 | < 10
COCCOCC(=O)N[C@@H](CCCNC(=N)N[N+](=O)[O-])C(=O)N[C@@H](CC(C)C)B1O[C@@H]2C[C@@H]3C[C@@H](C3(C)C)[C@]2(C)O1 [D.1.6] | 200 to 2000 | < 100
COCCOCCOCC(=O)N[C@@H](CCCNC(=N)N[N+](=O)[O-])C(=O)N[C@@H](CC(C)C)B1O[C@@H]2C[C@@H]3C[C@@H](C3(C)C)[C@]2(C)O1 [D.1.7] | 2000 to 10000 | < 100
CCOC(=O)/C=C/C(=O)N[C@@H](CCCNC(=N)N[N+](=O)[O-])C(=O)N[C@@H](CC(C)C)B1O[C@@H]2C[C@@H]3C[C@@H](C3(C)C)[C@]2(C)O1 [D.1.8, (E)-3-(Ethoxycarbonyl)acrylamide,N-[(1S)-1-[[[(1R)-1-[(3aS,4S,6S,7aR)-hexahydro-3a,5,5-trimethyl-4,6-methano-1,3,2-benzodioxaborol-2-yl]-3-methylbutyl]amino]carbonyl]-4-[[imino(nitroamino)methyl]amino]butyl]] | 200 to 2000 | < 10
CC(C)C[C@H](NC(=O)[C@H](CCCNC(=N)N[N+](=O)[O-])NC(=O)CCCC1CCN(C)CC1)B1O[C@@H]2C[C@@H]3C[C@@H](C3(C)C)[C@]2(C)O1 [D.1.10, 4-(1-Methyl-piperidin-4-yl)-butanamide,N-[(1S)-1-[[[(1R)-1-[(3aS,4S,6S,7aR)-hexahydro-3a,5,5-trimethyl-4,6-methano-1,3,2-benzodioxaborol-2-yl]-3-methylbutyl]amino]carbonyl]-4-[[imino(nitroamino)methyl]amino]butyl]] | 200 to 2000 | < 100
CC(=O)NCC(=O)N[C@@H](CCCNC(=N)N[N+](=O)[O-])C(=O)N[C@@H](CC(C)C)B1O[C@@H]2C[C@@H]3C[C@@H](C3(C)C)[C@]2(C)O1 [D.1.11, 2-Acetylamino-acetamide,N-[(1S)-1-[[[(1R)-1-[(3aS,4S,6S,7aR)-hexahydro-3a,5,5-trimethyl-4,6-methano-1,3,2-benzodioxaborol-2-yl]-3-methylbutyl]amino]carbonyl]-4-[[imino(nitroamino)methyl]amino]butyl]] | > 10000 | < 100
CC(C)C[C@H](NC(=O)[C@H](CCCNC(=N)N[N+](=O)[O-])NC(=O)CCCCCNS(=O)(=O)c1ccccc1)B1O[C@@H]2C[C@@H]3C[C@@H](C3(C)C)[C@]2(C)O1 [D.1.12, 6-Benzenesulfonylaminohexanamide,N-[(1S)-1-[[[(1R)-1-[(3aS,4S,6S,7aR)-hexahydro-3a,5,5-trimethyl-4,6-methano-1,3,2-benzodioxaborol-2-yl]-3-methylbutyl]amino]carbonyl]-4-[[imino(nitroamino)methyl]amino]butyl]] | 200 to 2000 | < 10
CCS(=O)(=O)NCCCCCCCC(=O)N[C@@H](CCCNC(=N)N[N+](=O)[O-])C(=O)N[C@@H](CC(C)C)B1O[C@@H]2C[C@@H]3C[C@@H](C3(C)C)[C@]2(C)O1 [D.1.13] | 2000 to 10000 | < 10
CCS(=O)(=O)NCCCCCC(=O)N[C@@H](CCCNC(=N)N[N+](=O)[O-])C(=O)N[C@@H](CC(C)C)B1O[C@@H]2C[C@@H]3C[C@@H](C3(C)C)[C@]2(C)O1 [D.1.14, 6-(Ethanesulfonylamino)hexanamide,N-[(1S)-1-[[[(1R)-1-[(3aS,4S,6S,7aR)-hexahydro-3a,5,5-trimethyl-4,6-methano-1,3,2-benzodioxaborol-2-yl]-3-methylbutyl]amino]carbonyl]-4-[[imino(nitroamino)methyl]amino]butyl]] | > 10000 | < 100
CC(C)C[C@H](NC(=O)[C@H](CCCNC(=N)N[N+](=O)[O-])NC(=O)CCCCCCCCCN1C(=O)c2ccccc2C1=O)B1O[C@@H]2C[C@@H]3C[C@@H](C3(C)C)[C@]2(C)O1 [D.2, 10-(1,3-Dioxo-1,3-dihydro-isoindol-2-yl)-decanamide, N-[(1S)-1-[[[(1R)-1-[(3aS,4S,6S,7aR)-hexahydro-3a,5,5-trimethyl-4,6-methano-1,3,2-benzodioxaborol-2-yl]-3-methylbutyl]amino]carbonyl]-4-[[imino(nitroamino)methyl]amino]butyl]-;] | < 200 | < 10
COC(=O)CCCC(=O)N[C@@H](CCCNC(=N)N[N+](=O)[O-])C(=O)N[C@@H](CC(C)C)B1O[C@@H]2C[C@@H]3C[C@@H](C3(C)C)[C@]2(C)O1 [D.2.1, 4-(methoxycarbonyl)butanamide,N-[(1S)-1-[[[(1R)-1-[(3aS,4S,6S,7aR)-hexahydro-3a,5,5-trimethyl-4,6-methano-1,3,2-benzodioxaborol-2-yl]-3-methylbutyl]amino]carbonyl]-4-[[imino(nitroamino)methyl]amino]butyl]] | 200 to 2000 | < 10
